The record followed here is ChEMBL document CHEMBL1201862, “PubChem BioAssay data set” (2004).

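The compound was tested at five concentrations on cells cultured in 96-well plates, with a 48-hour exposure period. GI50: concentration for 50% inhibition of growth.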 Activity calls are given as the source filed them. No stated cut-off is given here; in the data, active = GI50 up to about 1.1 µM and inactive = higher.

Holding throughout (test): NCI anticancer screen, dose series, 48 h
Test [1] has as its system KM12.
Test [2] concerns HCC 2998.
The test system of test [3] is IGROV-1.
In test [4] the test system is SW-620.
The test system of test [5] is ACHN.
In test [6] the test system is LOX IMVI.
Test [7] relates to HL-60.
The subject of test [8] is NCI-H23.
For test [9], the system named is NCI-H522.
The subject of test [10] is UACC-257.
Test [11] has as its system SF-295.
Test [12] has as its system SR.
The subject of test [13] is COLO 205.
Test [14] concerns OVCAR-3.
The test system of test [15] is M14.
Test [16] deals with MDA-MB-231.
In test [17] the test system is SN12C.
Test [18] deals with MDA-N.
Test [19] has as its system MDA-MB-435.
The test system of test [20] is SK-OV-3.

Take `COCC[N+](CCNC(=O)c1cccc2c(N)c3cccc(C)c3nc12)(CCOC)Cc1ccc([N+](=O)[O-])cc1`: the GI50 in test [1] was 14.5 µM (inactive); in [2] it was 4.92 µM (inactive); in [3], 11.1 µM (inactive); in test [4] it was 21.1 µM (inactive); in test [5] it was 32.4 µM (inactive); in test [6] it was 23.1 µM (inactive). In addition, the GI50 was 12.9 µM (inactive) in test [7]; 29.8 µM (inactive) in test [8]; 5.37 µM (inactive) in [9]; 16.9 µM (inactive) in test [10]; 28.4 µM (inactive) in test [11]; 2.99 µM (inactive) in test [12]. The GI50 is 16.1 µM (inactive) in test [13]; 16.7 µM (inactive) in [14]; 29.6 µM (inactive) in test [15]; 28.1 µM (inactive) in [16]; 32.9 µM (inactive) in [17]; 31.1 µM (inactive) in test [18]. The GI50 in test [19] was 30 µM (inactive).

As for `CC1(C)[N+]([O-])=[N+]([O-])C1(Br)c1ccccc1` (configuration not stated), the GI50 in [1] is 89.1 µM (inactive); in test [2], > 100 µM (inactive); in test [3], > 100 µM (inactive); in test [20], > 100 µM (inactive); in test [4] it was > 100 µM (inactive); in [5], > 100 µM (inactive). For the same compound, the GI50 was 48.1 µM (inactive) in test [6]; 33 µM (inactive) in test [7]; 80.9 µM (inactive) in test [8]; 54.8 µM (inactive) in test [10]; 49.2 µM (inactive) in test [11]; 43.5 µM (inactive) in [12]. Moreover, the GI50 in test [13] was > 100 µM (inactive); in test [14] it was 39.2 µM (inactive); in test [15], > 100 µM (inactive); in test [16], 59.6 µM (inactive); in [17], > 100 µM (inactive); in test [18], > 100 µM (inactive). Further, the GI50 in [19] is > 100 µM (inactive).

With `CCOc1ccc(Nc2nc(N)nc(N)c2N)cc1`, the GI50 in test [1] was 23.7 µM (inactive); in [3] it was 11.6 µM (inactive); in test [20] it was > 100 µM (inactive); in test [4], 33.1 µM (inactive); in test [5], 38.7 µM (inactive); in test [6], 36.2 µM (inactive). The GI50 in [7] is 39.1 µM (inactive); in [8] it was 26.8 µM (inactive); in [9], 26 µM (inactive); in [10] it was > 100 µM (inactive); in test [11] it was 17.9 µM (inactive); in test [12], 0.472 µM (active). The GI50 in test [13] was 27.9 µM (inactive); in test [14], 30.5 µM (inactive); in test [15], 47.2 µM (inactive); in test [16] it was 31.8 µM (inactive); in [17], > 10 µM (inactive); in [18] it was 3.79 µM (inactive). Besides, the GI50 in test [19] is 25.1 µM (inactive).

For `O=C1Nc2c(Cl)cc(Cl)cc2/C1=N/N=C/c1ccco1`, the GI50 is 25.4 µM (inactive) in test [1]; 37.3 µM (inactive) in test [2]; 27.5 µM (inactive) in [3]; 67.3 µM (inactive) in test [20]; 37 µM (inactive) in test [4]; 34.1 µM (inactive) in test [5]. Besides, the GI50 in [6] was 17.8 µM (inactive); in test [7], 29.7 µM (inactive); in test [8], 25 µM (inactive); in test [10], 44 µM (inactive); in test [11] it was 31.7 µM (inactive); in test [12] it was 24.8 µM (inactive). Besides, the GI50 in [13] was 22.4 µM (inactive); in [14], 24.7 µM (inactive); in [15] it was 34.7 µM (inactive); in test [16], 20.3 µM (inactive); in [17] it was 26.6 µM (inactive); in [18], 18.9 µM (inactive). Besides, in test [19], the GI50 was 29.9 µM (inactive).

Take `Cc1ncc([N+](=O)[O-])n1CCNC(=O)CCC(=O)NCCCn1ccnc1[N+](=O)[O-]`: the GI50 in test [1], in test [3], in [20], in test [4], in test [5] and in [6] was > 100 µM (inactive) each time. Also, the GI50 in test [7], in [8], in test [9], in test [10], in test [11] and in test [12] was > 100 µM (inactive) in each case. Further, the GI50 in test [13], in test [14], in test [15], in [16], in test [17] and in [18] was > 100 µM (inactive) each time. Also, the GI50 in [19] is > 100 µM (inactive).

With `O=C1CC(C(CC(=O)c2ccccc2)c2ccccc2)C(=O)c2ccccc2N1` (configuration not stated), the GI50 is 49.7 µM (inactive) in [1]; 48.6 µM (inactive) in [2]; > 100 µM (inactive) in test [3]; > 100 µM (inactive) in [20]; 68.7 µM (inactive) in [4]; 45.3 µM (inactive) in test [5]. Also, the GI50 is 35.4 µM (inactive) in test [6]; 31.5 µM (inactive) in test [7]; > 100 µM (inactive) in test [8]; 88.5 µM (inactive) in test [10]; 37.2 µM (inactive) in [11]; 16 µM (inactive) in test [12]. In addition, the GI50 was 54.8 µM (inactive) in [13]; 28.4 µM (inactive) in [14]; 33.7 µM (inactive) in [15]; 49 µM (inactive) in test [16]; 35.7 µM (inactive) in test [17]; 49.3 µM (inactive) in test [18]. Further, in test [19], the GI50 was 50.1 µM (inactive).

For the compound `Cc1cc(O)c2c(c1)C[C@@H](O)C1=C2C(=O)c2c(O)ccc(OC3CC(O)C(OC4CC(OC5CCC(OC6CC(O)C(OC7CC(OC8CCC(O)C(C)O8)C(O)C(C)O7)C(C)O6)C(C)O5)C(O)C(C)O4)C(C)O3)c2C1=O` (some centres not stated), the GI50 was 0.0998 µM (active) in test [1]; 0.105 µM (active) in test [2]; 0.176 µM (active) in test [3]; 0.0381 µM (active) in test [4]; 0.0845 µM (active) in test [5]; 0.0426 µM (active) in [6]. For the same compound, the GI50 in [7] is 0.0364 µM (active); in test [8] it was 0.0661 µM (active); in [9] it was 0.0188 µM (active); in test [10] it was 0.11 µM (active); in [11] it was 0.0441 µM (active); in [12], 0.0715 µM (active). In addition, the GI50 in [13] is 0.0488 µM (active); in test [14], 0.0641 µM (active); in [15] it was 0.0789 µM (active); in test [16], 0.171 µM (active); in [17], 0.0581 µM (active); in test [18], 0.155 µM (active). Further, the GI50 in test [19] is 0.135 µM (active).

On to `Cc1cccc2c(NCCN(C)C)c3cccc(C(=O)NCCN(C)C)c3nc12`, for which the GI50 is 0.0692 µM (active) in [1]; < 0.0455 µM (active) in test [2]; 0.171 µM (active) in test [3]; 0.226 µM (active) in test [20]; 0.0276 µM (active) in test [4]; 0.0489 µM (active) in [5]. For the same compound, the GI50 in test [7] is 0.24 µM (active); in test [8] it was 0.372 µM (active); in test [9], < 0.0486 µM (active); in test [10], 0.693 µM (active); in test [11], 0.105 µM (active); in test [12], 0.0281 µM (active). For the same compound, the GI50 is 0.173 µM (active) in [13]; 0.31 µM (active) in [14]; 0.578 µM (active) in test [15]; 0.0904 µM (active) in [16]; 0.0603 µM (active) in test [17]; 0.265 µM (active) in test [18]. The GI50 in [19] was 0.176 µM (active).

Consider `Fc1cc(C2=Nn3c(CNc4ccc(Cl)cc4)nnc3S/C2=C\c2ccc(-c3ccc(Cl)cc3)o2)c(Cl)cc1Cl`, for which the GI50 is > 100 µM (inactive) in test [1]; 57.8 µM (inactive) in [2]; 17.7 µM (inactive) in test [3]; > 100 µM (inactive) in test [4]; 34.9 µM (inactive) in test [5]; 22.8 µM (inactive) in [6]. The GI50 in [7] was > 100 µM (inactive); in test [8], 81.8 µM (inactive); in test [9], 38 µM (inactive); in test [10] it was > 100 µM (inactive); in test [11], 22.3 µM (inactive); in test [12], 29.6 µM (inactive). Also, the GI50 in test [13] is 14.3 µM (inactive); in test [14] it was 29.6 µM (inactive); in test [15], 53.3 µM (inactive); in test [16], 10.2 µM (inactive); in test [17], 33.3 µM (inactive); in test [18], > 100 µM (inactive). Also, the GI50 in test [19] is 68.5 µM (inactive).

Regarding `O=C(O)c1cc(/C=C/c2cc(O)ccc2O)ccc1O`, the GI50 in test [2], in [4], in test [5], in test [6], in [7] and in test [8] was > 10 µM (inactive) in each case. For the same compound, the GI50 in test [9], in test [10], in [11], in [12], in test [14] and in test [15] was > 10 µM (inactive) in each case. The GI50 is > 10 µM (inactive) in test [16], > 10 µM (inactive) in test [17], 3.43 µM (inactive) in test [18] and > 10 µM (inactive) in [19].
